This is an account of results in US10676440B2, “Crystalline forms of an NK-1 antagonist” (Helsinn Healthcare SA, priority 2014, dated 2020).

SMILES strings stand for the structures.

One data set deals with rat plasma proteins. Kind of data set: Binding to rat plasma proteins. In kind it is in vitro ADME.
A further data set is described as follows: in vivo. The conditions noted are these: male, RoRo Fuellinsdorf, rat, in vivo; for AUC(0-t): AUC (0-24 h). On the procedure:
In Example 11, the pharmacokinetics of the compound of Formula I was evaluated following single intravenous, intraperitoneal, and oral administration to rats to compare the oral bioavailability of two different formulations and to measure the brain penetration after intravenous administration.
A solution of the compound of Formula I (4.7 mg/mL) in water and a suspension of the compound of Formula I (5 mg/mL) in SSV (standard suspension vehicle) were prepared.
The experiments were performed in 20 male rats (Strain RoRo Fuellinsdorf, body weight 230-290 g) from Biological Research Laboratories, Fuellinsdorf, Switzerland. The animals were housed under standard laboratory conditions throughout the study period. After an acclimatization period of 3 days, the rats were implanted with chronic jugular catheters under pentobarbital anesthesia. After surgery the rats were on recovery for 2 days before dosing. They had free access to water and food during the experiment.
For the pharmacokinetic studies, 0.4 mL blood samples were collected at different time points, up to 72 hours post-dose, from the jugular vein of the rats via catheter. For the study of brain and CSF penetration, 2 mL blood samples as well as CSF and brain were collected between 0.3 and 2 hours post-dose from one rat at each time point. Collection tubes contained EDTA/NAF as anticoagulant and stabilizer, respectively. After centrifugation, plasma was removed. Plasma, CSF and brain samples were stored deep-frozen at approximately −20° C. until analysis using a specific LC-MS method.
Aliquots of plasma samples of 40 μL were mixed with 50 μL buffer pH 9, 50 μL of a Formula I internal standard (1 μg/mL 1-chlorobutane) and 250 μL butylacetate and then shaken for 10 min. After centrifugation, 200 μL of the supernatant were evaporated to dryness at 45° C. under a stream of nitrogen. The residue was reconstituted with 200 μL acetonitrile/1% formic acid in water (30/70, v/v). An aliquot of 30 μL was injected onto an analytical column (Waters, Symmetry C8, 2.1×150 mm, 5 μm).
The sample passed to the ion-spray interface of the single quadrupole mass spectrometer. Selected ion monitoring mode (SIM) was used for mass spectrometric detection. Quantification was based on peak area ratios and calibration curve established by weighted (1/x^2) linear regression. The calibration curve was established between 5 and 5000 ng/mL using dog plasma as matrix. Data acquisition and integration of SIM chromatograms were performed using MacQuan (version 1.6) from Perkin-Elmer Sciex.
The pharmacokinetic parameters were estimated by non-compartmental analysis, using the pharmacokinetic evaluation program WinNOnlin [1]. AUC(0-inf) was calculated applying the linear trapezoidal rule and extrapolation to infinity using the apparent elimination rate constant λz and the calculated concentration at the last measurable time point. AUClast values were calculated by linear trapezoidal rule from time zero to time of last measureable time point. Cmax, C(t), and Tmax were determined directly from the plasma concentration-time profiles. The apparent terminal half-life (T1/2) was derived from the equation: T1/2=ln2/λz. Means of the half-life were calculated by harmonic means. Plasma clearance, CL, was calculated as D/AUC(0-inf.). Volume of distribution, Vz, was calculated as CL/λz. The absolute bioavailability was calculated from plasma concentration data as follows: […]
A solution of Formula I (hydrochloride salt) was administered intravenously at a dose of 9.4 mg/kg to 2 male rats in two subsequent experiments. In both studies, blood samples were obtained at 0.083, 0.25, 0.5, 1, 2, 4, 6, 8, and 24 h after intravenous application and in addition at 48 and 72 h in the study.

By Cmax is commonly meant the peak of the concentration-time curve. A word on the Tmax: it is the time from dosing to the highest level. Usually AUC(0-t) stands for exposure summed from dosing to a finite time, without extrapolation to infinity. A low value points to low exposure. Usually Vd stands for a proportionality between amount in the body and measured concentration, not a real space. Read a low Vd as little distribution into tissue. As usually defined, the clearance is the rate of elimination divided by the concentration. One may read the half-life as how long it takes for the measured level to halve. For the compound `Cc1ccccc1-c1cc(N2CCN(C)CC2)ncc1N(C)C(=O)C(C)(C)c1cc(C(F)(F)F)cc(C(F)(F)F)c1` [Formula I, 2-(3,5-bis(trifluoromethyl)phenyl)-N,2-dimethyl-N-(6-(4-methylpiperazin-1-yl)-4-(o-tolyl)pyridin-3-yl)propanamide], in the data set on rat plasma proteins, the “binding to rat plasma proteins” value is 99.8%. For the same compound, the “AUC (0-24 h)” value in “in vivo” (ip, 9.4 mg/kg) stood at 19900 ng·h/mL; in the data set “in vivo” (iv, 9.4 mg/kg), 24400 ng·h/mL; in “in vivo” (po, 9.4 mg/kg), 12600 ng·h/mL. Further, the Cmax stood at 1730 ng/mL in “in vivo” (ip, 9.4 mg/kg); 1610 ng/mL in “in vivo” (ip, 9.4 mg/kg, Cmax); 682 ng/mL in “in vivo” (po, 9.4 mg/kg); 991 ng/mL in “in vivo” (po, 9.4 mg/kg, Cmax). The Tmax was 0.25 h in the data set “in vivo” (ip, 9.4 mg/kg); no more than 0.25 h in “in vivo” (ip, 9.4 mg/kg, Tmax); 4 h in “in vivo” (po, 9.4 mg/kg); 2 h in “in vivo” (po, 9.4 mg/kg, Tmax). Also, the AUC(0-t) in the data set “in vivo” (ip, 9.4 mg/kg) stood at 26800 ng·h/mL; in “in vivo” (iv, 9.4 mg/kg) it was 29200 ng·h/mL; in the data set “in vivo” (po, 9.4 mg/kg), 15000 ng·h/mL. Moreover, in the data set “in vivo” (iv), the Vd is 12 L/kg. The clearance in the data set “in vivo” (iv) worked out at 6 mL/min/kg. Besides, the half-life in “in vivo” (iv, 9.4 mg/kg, mean apparent terminal half-life) is 1170 min; in “in vivo” (po, 9.4 mg/kg, T1/2), 1060 min. The T1/2 in the data set “in vivo” (po, 9.4 mg/kg) was determined as 18.9 h.
